In article PMC8908504 (ACS Omega, 2022):
Like-named read-outs stand apart in the source and are kept apart here.

What was measured:
KV7.2/3 channel = KV7.2/3 channel (Homo sapiens, UniProt O43525+O43526); assay: KV7.2/3 channel opening assay (thallium-sensitive fluorescence); format: cell-based; conditions: for KV7.2/3 channel opening activity (in words): inactive = no channel opening activity detected up to a concentration of 10 μM
Method: To evaluate the biological activity, the synthesized analogues were tested on HEK293 cells overexpressing the KV7.2/3 channel. The measurement was carried out in a fluorescence-based assay in which a thallium-sensitive dye generated the fluorescence signal. Due to its similarity to potassium, thallium can also pass through KV7 channels. The intensity of the fluorescence signal correlates with the amount of intracellular thallium and thus with the ability of the compounds to open KV7 channels. To determine the potency, the fluorescence intensity was measured as a function of the compound concentration. The efficacy was determined relative to the maximum fluorescence signal induced by flupirtine. For a summary of the activity data, see Table 2.
The cell culture of the KV7.2/3 transfected HEK293 cells (HEK293 KCNQ2/3 cells from SB Drug Discovery, Glasgow, UK) used for the assay and the processing of the obtained data were performed as described in earlier work.[27],[29] Briefly, 60,000 cells/well were seeded into 96-well microtiter plates for fluorescence-based assays (4titude Vision Plate Black 96-Well microtiter plates from ThermoScientic) and incubated for 24 h. After incubation, the medium was changed to 200 μL/well loading buffer containing 5 mmol/L probenecid and incubated for 1 h at room temperature. Subsequently, the test compounds dissolved in DMSO were added to the wells to the desired concentrations and further incubated for 30 min. As a control, the loading buffer with a DMSO concentration corresponding to the substance samples (1% (V/V)) was used. Fluorescence measurements were performed on the Infinite F200 Pro plate reader (Tecan) set at […]/emission wavelengths of 485 and 535 nm, respectively. After measuring the background fluorescence (baseline) for 20 s, a stimulus buffer (25 mmol/L K^+, 15 mmol/L Tl^+) was added just before the fluorescence of each well was measured.
The calculations to obtain dose–response curves were performed in the same manner as in previous investigations.[27],[29] Briefly, the fluorescence intensity was normalized with the baseline signal (F/F0) at each time of signal acquisition. To obtain the corrected negative control, a value of 1 was subtracted from the normalized value of the negative control. Subsequently, the value of the corrected negative control was subtracted from the maximum (corr. F/F0) value of a compound in a defined concentration (corr. ΔF/F0) and then plotted against the logarithmic concentration. The EC50 value was calculated as relative values with GraphPad Prism 6 (La Jolla, CA, USA), that is, the inflection points of the sigmoidal curves. The Emax value, the maximum response, indicates the intrinsic activity of a compound. This value was determined relative to flupirtine (1), where the maximum corr. ΔF/F0 value of flupirtine (1) was defined as 100%. The EC50 and Emax value of a compound is the mean of at least three independent experiments ± standard deviation (SD).

TAMH cells = assay: MTT cell viability assay, TAMH cells; conditions: for LD50: 50% reduction of viability
Excerpt: (§1) In addition to the activity, basic toxicological properties of the newly synthesized compounds were also investigated by using the 3-(4,5-dimethylthiazol-2-yl)-2,5-diphenyltetrazolium bromide (MTT) cell viability assay on mouse TAMH and human HEP-G2 hepatic cell lines (see Table 2). Both cell lines are established for the evaluation of hepatotoxicity.[42],[43]
(§2) The culturing of the mouse liver TAMH and human liver cancer HEP-G2 cell lines and the MTT assay used to evaluate cell viability were carried out as previously described elsewhere in detail.[27],[29] […] The medium in the wells was then replaced with the medium containing the compounds. Control wells contained an equivalent number of cells and 1% (v/v) DMSO. Wells without cells were used to determine the background optical density (OD) and were treated as the control wells. After 24 or 48 h of incubation with the compound, the respective medium was replaced with a fresh medium supplemented with 10% (v/v) of a 2.5 mg/mL solution of MTT. The plates were incubated for 4 h. Then, the culture medium was carefully aspirated off and 50 μL of DMSO was added to each well to dissolve the formazan crystals. The ODs of each well were measured at λ = 570 nm with a SpectraMax 190 microplate reader.
(§3) The calculated T/Ccorr. values were plotted against the log(concentration). The LD50 and LD25 values were determined by using GraphPad Prism 6. […] The values are given as the mean with SD of at least three independent experiments.

HEP-G2 cells = assay: MTT cell viability assay, HEP-G2 cells; conditions: for LD50: 50% reduction of viability
Excerpt: as §1, §2, §3

[1] = log D7.4 estimation by HPLC-based method; format: physicochemical; conditions: HPLC, Phenomenex Luna 5 μm Phenyl-Hexyl column
Method: The log D7.4 values were estimated using a common HPLC-based method in accordance with guideline OPPTS 830.7570 of the United States Environmental Protection Agency (EPA). The HPLC measurements were performed with a Phenomenex Luna 5 μm Phenyl-Hexyl 100 Å column (150 × 4.6 mm). […]. Uracil was used to measure the unretained peak time. To obtain a calibration function, the logarithm of the capacity factors for the reference substances was then plotted against the corresponding log P values taken from the mentioned guideline, which are equivalent to the log D7.4 values for non-ionizable compounds like the reference substances used for calibration. With this calibration function, it was possible to estimate the log D7.4 value from the corresponding retention time for each compound to be tested. For the measurement, 2 mg of the reference substances was each dissolved in 1 mL of methanol. A reference mixture was then obtained by combining 50 μL of each reference solution. The reference mixture was measured before and after the substances to be tested. The mean value from both measurements was used for the calibration line. The substances to be tested were injected as a solution in methanol (2 mg/mL), and the retention time was determined as the mean value from two measurements.

[2] = TAMH cells, MTT assay, 24 h exposure
[3] = HEP-G2 cells, MTT assay, 24 h exposure
[4] = pH 7.4, HPLC, calibration A1, read-out: logD7.4
[5] = pH 7.4, HPLC, calibration B1, read-out: logD7.4
[6] = pH 7.4, HPLC, mean of two calibrations, read-out: logD7.4 (mean)
[7] = pH 7.4, estimated by HPLC-based method, pH 7.4, read-out: log D7.4
[8] = HEK293 cells overexpressing KV7.2/3, footnote e
[9] = TAMH cells, MTT assay, 24 h exposure, 25% reduction of viability
[10] = HEP-G2 cells, MTT assay, 24 h exposure, 25% reduction of viability
[11] = pH 7.4, HPLC, calibration C, read-out: logD7.4
[12] = pH 7.4, HPLC, calibration D, read-out: logD7.4

Chain of KV7.2/3 channel (O43526 whole entry): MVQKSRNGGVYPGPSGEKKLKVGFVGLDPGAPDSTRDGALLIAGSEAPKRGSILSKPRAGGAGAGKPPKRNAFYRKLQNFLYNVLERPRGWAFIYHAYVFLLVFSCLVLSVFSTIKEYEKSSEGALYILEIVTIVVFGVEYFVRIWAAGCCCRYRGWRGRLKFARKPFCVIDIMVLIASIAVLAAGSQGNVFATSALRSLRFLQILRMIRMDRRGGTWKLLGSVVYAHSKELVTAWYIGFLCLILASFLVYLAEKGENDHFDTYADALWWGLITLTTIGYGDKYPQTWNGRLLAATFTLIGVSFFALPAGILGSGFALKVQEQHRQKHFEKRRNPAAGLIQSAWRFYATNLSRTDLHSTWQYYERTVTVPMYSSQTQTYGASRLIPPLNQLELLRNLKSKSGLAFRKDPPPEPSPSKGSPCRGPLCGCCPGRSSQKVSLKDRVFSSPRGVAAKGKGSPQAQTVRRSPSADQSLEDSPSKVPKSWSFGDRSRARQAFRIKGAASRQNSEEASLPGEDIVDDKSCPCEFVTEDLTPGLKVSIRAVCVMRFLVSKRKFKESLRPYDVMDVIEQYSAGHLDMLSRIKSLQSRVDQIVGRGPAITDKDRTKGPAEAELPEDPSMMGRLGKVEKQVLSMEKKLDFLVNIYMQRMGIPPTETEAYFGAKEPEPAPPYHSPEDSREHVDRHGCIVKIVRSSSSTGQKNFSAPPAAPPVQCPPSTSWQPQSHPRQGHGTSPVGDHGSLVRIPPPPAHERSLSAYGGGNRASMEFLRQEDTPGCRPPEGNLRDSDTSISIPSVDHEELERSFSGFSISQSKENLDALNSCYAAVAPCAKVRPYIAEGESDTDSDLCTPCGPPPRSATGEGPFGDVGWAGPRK
Chain of KV7.2/3 channel (O43525 whole entry): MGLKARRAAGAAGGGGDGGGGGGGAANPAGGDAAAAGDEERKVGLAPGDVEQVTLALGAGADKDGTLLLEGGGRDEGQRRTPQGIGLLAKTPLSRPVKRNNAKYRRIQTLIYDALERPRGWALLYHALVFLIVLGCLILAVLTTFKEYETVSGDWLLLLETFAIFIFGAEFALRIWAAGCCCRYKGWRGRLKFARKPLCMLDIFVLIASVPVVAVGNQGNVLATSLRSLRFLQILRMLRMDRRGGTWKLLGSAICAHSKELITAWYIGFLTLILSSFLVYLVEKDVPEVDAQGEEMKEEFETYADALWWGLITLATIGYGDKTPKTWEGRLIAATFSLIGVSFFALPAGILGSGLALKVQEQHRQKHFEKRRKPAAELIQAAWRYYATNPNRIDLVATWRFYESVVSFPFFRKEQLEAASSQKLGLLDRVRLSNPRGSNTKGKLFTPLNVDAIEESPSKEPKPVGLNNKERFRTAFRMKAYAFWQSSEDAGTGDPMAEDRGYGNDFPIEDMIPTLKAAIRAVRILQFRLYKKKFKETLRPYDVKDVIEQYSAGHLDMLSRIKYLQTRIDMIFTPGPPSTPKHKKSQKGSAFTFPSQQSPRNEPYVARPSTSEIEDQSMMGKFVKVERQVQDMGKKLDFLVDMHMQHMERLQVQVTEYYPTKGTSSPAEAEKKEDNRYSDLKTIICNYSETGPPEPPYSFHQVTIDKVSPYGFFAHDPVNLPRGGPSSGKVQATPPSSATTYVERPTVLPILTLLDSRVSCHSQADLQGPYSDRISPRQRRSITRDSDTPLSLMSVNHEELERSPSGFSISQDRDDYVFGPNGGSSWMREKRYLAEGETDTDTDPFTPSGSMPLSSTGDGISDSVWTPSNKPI

SMILES: CCOC(=O)Nc1ccc(NCc2ccc(F)cc2)nc1N [compound 1, flupirtine, reference compound]
- EC50 (KV7.2/3 channel; HEK293 cells overexpressing KV7.2/3, concentration for half-maximal channel opening, mean ± SD, ≥3 determinations): 1.84 ± 0.844 µM
- efficacy (KV7.2/3 channel; HEK293 cells overexpressing KV7.2/3, relative to maximum signal of flupirtine (=100%)): 100%
- LD50 (TAMH cells; [2]): 487 ± 51 µM
- LD50 (TAMH cells; TAMH cells, MTT assay, 24 h exposure, listed as flupirtine): ~500 µM
- LD25 (TAMH cells; mouse, 24 h): 103 ± 47 µM
- LD50 (HEP-G2 cells; [3]): 547 ± 111 µM
- LD50 (HEP-G2 cells; HEP-G2 cells, MTT assay, 24 h exposure, listed as flupirtine): ~500 µM
- LD25 (HEP-G2 cells; human, 24 h): 74 ± 40 µM
- chromatographic logD [1, 4]: 2.1
- chromatographic logD [1, 5]: 2.06
- chromatographic logD [1, 6]: 2.1
- chromatographic logD [1, 7]: 2.1

SMILES: CC(C)CNC(=O)c1ccc(NCc2ccc(F)cc2)cc1N [compound 17, 2-Amino-4-[(4-fluorobenzyl)amino]-N-isobutylbenzamide]
- EC50 (KV7.2/3 channel; [8]): > 10 µM
- KV7.2/3 channel opening activity (in words) (KV7.2/3 channel): inactive
- LD25 (TAMH cells; [9]): >125 µM
- LD50 (TAMH cells; [2]): >125 µM
- LD25 (HEP-G2 cells; [10]): 56 ± 40 µM
- LD50 (HEP-G2 cells; [3]): >125 µM
- chromatographic logD [1, 11]: 2.75
- chromatographic logD [1, 12]: 2.75
- chromatographic logD [1, 6]: 2.7
- chromatographic logD [1, 7]: 2.7

SMILES: CCCCNC(=O)c1ccc(NCc2ccc(F)cc2)nc1N [compound 21, 2-Amino-N-butyl-6-[(4-fluorobenzyl)amino]nicotinamide]
- EC50 (KV7.2/3 channel; [8]): > 10 µM
- KV7.2/3 channel opening activity (in words) (KV7.2/3 channel): inactive
- LD25 (TAMH cells; [9]): 145 ± 7 µM
- LD50 (TAMH cells; [2]): 149 ± 7 µM
- LD25 (HEP-G2 cells; [10]): 148 ± 11 µM
- LD50 (HEP-G2 cells; [3]): 149 ± 11 µM
- chromatographic logD [1, 4]: 2.88
- chromatographic logD [1, 5]: 2.86
- chromatographic logD [1, 6]: 2.9
- chromatographic logD [1, 7]: 2.9

SMILES: CCCNC(=O)c1ccc(NCc2ccc(F)cc2)cc1CC.Cl [compound 47, 2-Ethyl-4-[(4-fluorobenzyl)amino]-N-propylbenzamide hydrochloride]
- EC50 (KV7.2/3 channel; [8]): > 10 µM
- KV7.2/3 channel opening activity (in words) (KV7.2/3 channel): did not result in any improvement in terms of activity
- LD50 (TAMH cells; [2]): >125 µM
- LD25 (HEP-G2 cells; [10]): 60 ± 9 µM
- LD50 (HEP-G2 cells; [3]): 77 ± 15 µM
- chromatographic logD [1, 11]: 3.24
- chromatographic logD [1, 12]: 3.23
- chromatographic logD [1, 6]: 3.2
- chromatographic logD [1, 7]: 3.2

SMILES: Cc1cc(N2CCOCC2)nc(N)c1CNC(=O)Cc1cc(F)cc(F)c1 [compound 61, N-[(2-Amino-4-methyl-6-morpholinopyridin-3-yl)methyl]-2-(3,5-difluorophenyl)acetamide]
- EC50 (KV7.2/3 channel; [8]): > 10 µM
- KV7.2/3 channel opening activity (in words) (KV7.2/3 channel): inactive
- LD25 (TAMH cells; [9]): >63 µM
- LD50 (TAMH cells; [2]): >63 µM
- LD25 (HEP-G2 cells; [10]): >63 µM
- LD50 (HEP-G2 cells; [3]): >63 µM
- chromatographic logD [1, 4]: 2.57
- chromatographic logD [1, 5]: 2.58
- chromatographic logD [1, 6]: 2.6
- chromatographic logD [1, 7]: 2.6
